Columns and labels:
[1] = target: T1, 5-hydroxytryptamine receptor 1D (Homo sapiens, UniProt P28221); test: Binding affinity was measured on 5-hydroxytryptamine 1D receptor alpha in COS cells transfected with human 5-HT1D alpha gene labeled with [3H]5-HT; assay type: cell-based
[2] = target: T1, 5-hydroxytryptamine receptor 1D; test: Compound was evaluated for its agonistic activity on 5-hydroxytryptamine 1D receptor; assay type: functional
[3] = target: 5-hydroxytryptamine receptor 1B (Rattus norvegicus, UniProt P28564); test: Binding affinity was measured on 5-hydroxytryptamine 1B receptor in rat striatum labeled with [3H]5-HT; assay type: tissue-based
5-hydroxytryptamine receptor 1B, sequence (P28564 whole entry): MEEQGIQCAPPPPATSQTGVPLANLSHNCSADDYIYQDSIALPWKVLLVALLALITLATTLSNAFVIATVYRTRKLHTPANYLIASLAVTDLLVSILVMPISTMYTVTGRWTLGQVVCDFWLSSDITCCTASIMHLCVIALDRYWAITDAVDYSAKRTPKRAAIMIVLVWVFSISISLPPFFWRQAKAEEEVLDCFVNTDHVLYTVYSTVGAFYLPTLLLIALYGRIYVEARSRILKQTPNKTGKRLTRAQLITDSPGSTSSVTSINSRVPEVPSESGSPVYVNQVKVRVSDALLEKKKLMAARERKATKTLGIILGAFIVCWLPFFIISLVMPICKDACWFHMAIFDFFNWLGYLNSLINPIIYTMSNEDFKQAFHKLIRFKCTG

[4] = target: T2, Serotonin 3 (5-HT3) receptor (Rattus norvegicus, UniProt P35563+Q9JJ16); test: Binding affinity was measured on 5-hydroxytryptamine 3 receptor in NG-108 cells labeled with [3H]GR-65630; assay type: cell-based
T2 sequence (P35563 whole entry): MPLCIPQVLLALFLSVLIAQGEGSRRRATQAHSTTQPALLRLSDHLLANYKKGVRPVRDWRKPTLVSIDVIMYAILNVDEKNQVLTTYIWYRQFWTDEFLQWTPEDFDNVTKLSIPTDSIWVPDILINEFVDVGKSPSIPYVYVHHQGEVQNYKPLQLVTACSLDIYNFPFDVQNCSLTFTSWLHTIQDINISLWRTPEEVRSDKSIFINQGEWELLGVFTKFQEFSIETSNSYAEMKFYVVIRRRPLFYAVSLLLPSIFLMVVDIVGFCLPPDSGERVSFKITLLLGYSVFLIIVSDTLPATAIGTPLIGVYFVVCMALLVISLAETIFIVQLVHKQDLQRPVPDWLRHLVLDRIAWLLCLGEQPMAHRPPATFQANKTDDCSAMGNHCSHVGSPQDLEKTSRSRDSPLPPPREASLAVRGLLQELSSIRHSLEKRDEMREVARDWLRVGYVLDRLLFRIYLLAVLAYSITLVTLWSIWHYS
T2 sequence (Q9JJ16 whole entry): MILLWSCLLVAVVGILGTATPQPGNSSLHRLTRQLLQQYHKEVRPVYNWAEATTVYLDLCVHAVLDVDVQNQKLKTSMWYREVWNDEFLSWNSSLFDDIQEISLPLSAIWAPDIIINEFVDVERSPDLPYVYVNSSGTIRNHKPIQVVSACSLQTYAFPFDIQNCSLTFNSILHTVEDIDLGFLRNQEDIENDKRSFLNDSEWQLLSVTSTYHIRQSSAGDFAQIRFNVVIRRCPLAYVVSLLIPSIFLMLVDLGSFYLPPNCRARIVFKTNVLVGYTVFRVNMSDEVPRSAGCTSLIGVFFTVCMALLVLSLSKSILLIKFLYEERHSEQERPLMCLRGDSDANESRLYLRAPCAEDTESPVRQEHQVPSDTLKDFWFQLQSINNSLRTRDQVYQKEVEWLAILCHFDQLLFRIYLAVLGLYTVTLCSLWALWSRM

[5] = target: T3, 5-hydroxytryptamine receptor 2C (Rattus norvegicus, UniProt P08909); test: Binding affinity was measured on 5-hydroxytryptamine 2C receptor in J1 cells transfected with rat 5-HT2C gene labeled with [3H]mesulergine; assay type: cell-based
T3 sequence (P08909 whole entry): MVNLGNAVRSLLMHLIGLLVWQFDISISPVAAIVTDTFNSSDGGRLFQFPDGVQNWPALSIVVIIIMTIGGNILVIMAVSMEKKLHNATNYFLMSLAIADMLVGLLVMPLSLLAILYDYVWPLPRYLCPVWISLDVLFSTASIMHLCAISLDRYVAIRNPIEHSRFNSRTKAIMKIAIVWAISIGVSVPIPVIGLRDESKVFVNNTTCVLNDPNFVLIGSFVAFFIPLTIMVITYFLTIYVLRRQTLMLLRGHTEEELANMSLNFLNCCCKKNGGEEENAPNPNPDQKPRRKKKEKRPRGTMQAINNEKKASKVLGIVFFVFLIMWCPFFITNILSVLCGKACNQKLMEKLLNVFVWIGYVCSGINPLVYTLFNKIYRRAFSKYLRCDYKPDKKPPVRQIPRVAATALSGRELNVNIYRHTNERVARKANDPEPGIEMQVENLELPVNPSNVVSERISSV

[6] = target: 5-hydroxytryptamine receptor 2A (Homo sapiens, UniProt P28223); test: biochemical; assay type: cell-based, GF6
5-hydroxytryptamine receptor 2A, sequence (P28223 whole entry): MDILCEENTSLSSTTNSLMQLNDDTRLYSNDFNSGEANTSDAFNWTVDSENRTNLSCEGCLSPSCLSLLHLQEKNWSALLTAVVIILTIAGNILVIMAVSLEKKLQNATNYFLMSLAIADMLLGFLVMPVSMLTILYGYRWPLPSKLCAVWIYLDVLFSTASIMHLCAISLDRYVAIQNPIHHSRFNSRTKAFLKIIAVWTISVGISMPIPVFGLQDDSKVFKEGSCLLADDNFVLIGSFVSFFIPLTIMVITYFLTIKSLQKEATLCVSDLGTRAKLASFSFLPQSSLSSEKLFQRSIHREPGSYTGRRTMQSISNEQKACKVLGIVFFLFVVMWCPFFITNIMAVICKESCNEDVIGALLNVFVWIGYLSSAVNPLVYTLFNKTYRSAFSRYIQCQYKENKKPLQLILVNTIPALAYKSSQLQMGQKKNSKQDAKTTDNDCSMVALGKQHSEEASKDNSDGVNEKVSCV

T1 sequence (P28221 whole entry): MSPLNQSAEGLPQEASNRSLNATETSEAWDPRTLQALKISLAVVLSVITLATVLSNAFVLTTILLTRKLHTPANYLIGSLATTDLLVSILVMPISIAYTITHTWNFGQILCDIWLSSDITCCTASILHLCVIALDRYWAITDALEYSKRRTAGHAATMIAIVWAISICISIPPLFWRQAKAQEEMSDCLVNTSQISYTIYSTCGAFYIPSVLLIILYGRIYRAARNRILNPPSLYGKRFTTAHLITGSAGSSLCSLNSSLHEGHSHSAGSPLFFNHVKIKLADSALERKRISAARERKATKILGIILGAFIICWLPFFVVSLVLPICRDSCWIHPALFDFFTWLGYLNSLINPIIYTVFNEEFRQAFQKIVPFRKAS

| Compound | Ki [1] | ED50 [2] | Ki [3] | Ki [4] | Ki [5] | Ki [6] |
| --- | --- | --- | --- | --- | --- | --- |
| CCCCCCCCCOc1ccc2[nH]cc(CCN)c2c1 | 16 nM | 68 nM | 13 nM | > 1000 nM | 270 nM | 260 nM |
| NCCc1c[nH]c2ccc(O)cc12 |  | 1.2 nM |  |  |  |  |
| CNS(=O)(=O)Cc1ccc2[nH]cc(CCN(C)C)c2c1 |  | 317 nM |  | > 1000 nM | > 1000 nM |  |
